Several values for one entry are separate records, joined by “and”; a condition that tells them apart may be missing. Equal entries are not always repeated.
Molecular target: T1, BTK (Homo sapiens, UniProt Q06187)
T1 construct: endogenous in cells; host or cells: TMD-8 cells
Experiment: BTK degradation in TMD-8 cells, HTRF assay after 6 h treatment
Format: cell-based
Conditions: for DC50: IC50 (DC50) of BTK degradation; for Dmax: TMD8, maximum percentage of inhibition (degradation)
Outline: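 Remaining BTK was quantified by HTRF in lysates of TMD-8 cells after 6 h exposure to an 8-point, 6-fold compound series (500× stocks in DMSO starting at 1 mM; 0.2% DMSO). Lysis 30 min, antibodies overnight at room temperature, ratio read at 665/620 nm; DC50 fitted with a four-parameter logistic equation.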

T1 sequence (Q06187 whole entry): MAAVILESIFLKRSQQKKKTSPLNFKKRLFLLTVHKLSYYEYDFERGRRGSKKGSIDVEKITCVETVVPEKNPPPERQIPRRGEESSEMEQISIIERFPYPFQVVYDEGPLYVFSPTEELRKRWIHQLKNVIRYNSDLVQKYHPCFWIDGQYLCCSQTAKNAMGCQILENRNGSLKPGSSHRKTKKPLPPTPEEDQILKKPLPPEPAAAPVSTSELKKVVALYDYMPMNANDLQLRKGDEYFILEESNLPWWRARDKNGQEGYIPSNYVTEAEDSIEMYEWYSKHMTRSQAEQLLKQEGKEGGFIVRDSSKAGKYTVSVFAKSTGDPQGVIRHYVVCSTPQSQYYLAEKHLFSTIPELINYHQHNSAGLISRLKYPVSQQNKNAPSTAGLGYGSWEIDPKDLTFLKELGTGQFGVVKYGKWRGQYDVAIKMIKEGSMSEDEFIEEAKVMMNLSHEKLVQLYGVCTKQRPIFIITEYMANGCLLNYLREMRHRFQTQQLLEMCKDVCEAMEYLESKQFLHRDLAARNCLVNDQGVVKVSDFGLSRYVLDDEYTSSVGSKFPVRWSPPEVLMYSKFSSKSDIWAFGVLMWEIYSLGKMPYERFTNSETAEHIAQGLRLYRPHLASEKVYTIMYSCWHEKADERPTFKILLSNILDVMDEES

Cc1cc(-c2n[nH]c3ncc(-c4ccc(N5CCN(CCC6CCN(c7ccc([C@@H]8CCC(=O)NC8=O)cc7)CC6)CC5)cc4)cc23)ccc1CNC(=O)c1noc(C(C)(C)C)n1 [Example 92, (S)-5-(tert-butyl)-N-(4-(5-(4-(4-(2-(1-(4-(2,6-dioxopiperidin-3-yl)phenyl)piperidin-4-yl)ethyl)piperazin-1-yl)phenyl)-1H-pyrazolo[3,4-b]pyridin-3-yl)-2-methylbenzyl)-1,2,4-oxadiazole-3-carboxamide]
DC50: 7.24 nM

Cc1cc(-c2n[nH]c3ncc(-c4ccc(N5CCN(CCOc6cccc7c6C(=O)N([C@@H]6CCC(=O)NC6=O)C7)CC5)cc4)cc23)ccc1[C@@H](C)NC(=O)c1nc(C(C)(C)C)no1 [Example 226, 3-(tert-butyl)-N—((R)-1-(4-(5-(4-(4-(2-((2-((R)-2,6-dioxopiperidin-3-yl)-3-oxoisoindolin-4-yl)oxy)ethyl)piperazin-1-yl)phenyl)-1H-pyrazolo[3,4-b]pyridin-3-yl)-2-methylphenyl)ethyl)-1,2,4-oxadiazole-5-carboxamide]
DC50: 3.04 nM

Cc1cc(-c2n[nH]c3ncc(-c4ccc(N5CCN(CCc6ccc(C7CCC(=O)NC7=O)c(F)c6)CC5)cc4)cc23)ccc1[C@@H](C)NC(=O)c1noc(C(C)(C)C)n1 (stereo partly drawn) [Example 36, 5-(tert-butyl)-N-((1R)-1-(4-(5-(4-(4-(4-(2,6-dioxopiperidin-3-yl)-3-fluorophenethyl)piperazin-1-yl)phenyl)-1H-pyrazolo[3,4-b]pyridin-3-yl)-2-methylphenyl)ethyl)-1,2,4-oxadiazole-3-carboxamide]
DC50: 3 nM | Dmax: 98.3%

Cc1cc(-c2n[nH]c3ncc(-c4ccc(N5CCN(CCn6cc(C7CCC(=O)NC7=O)cn6)CC5)cc4)cc23)ccc1[C@@H](C)NC(=O)c1noc(C(C)(C)C)n1 (stereo partly drawn) [Example 186, 5-(tert-butyl)-N-((1R)-1-(4-(5-(4-(4-(2-(4-(2,6-dioxopiperidin-3-yl)-1H-pyrazol-1-yl)ethyl)piperazin-1-yl)phenyl)-1H-pyrazolo[3,4-b]pyridin-3-yl)-2-methylphenyl)ethyl)-1,2,4-oxadiazole-3-carboxamide]
DC50: 1.61 nM

COc1cc(OCCCN2CCC(c3ccc(-c4cnc5[nH]nc(-c6ccc(CNC(=O)c7nc(C(C)(C)C)no7)c(C)c6)c5c4)cc3)CC2)ccc1C1CCC(=O)NC1=O (stereo not shown) [Example 30, 3-(tert-butyl)-N-(4-(5-(4-(1-(3-(4-(2,6-dioxopiperidin-3-yl)-3-methoxyphenoxy)propyl)piperidin-4-yl)phenyl)-1H-pyrazolo[3,4-b]pyridin-3-yl)-2-methylbenzyl)-1,2,4-oxadiazole-5-carboxamide]
DC50: 8.19 nM | Dmax: 97.5%

Cc1cc(-c2n[nH]c3ncc(-c4ccc(N5CC6CC5CN6CCc5ccc(C6CCC(=O)NC6=O)c(C)n5)cn4)cc23)ccc1[C@@H](C)NC(=O)c1noc(C(C)(C)C)n1 (stereo partly drawn) [Example 170, 5-(tert-butyl)-N-((1R)-1-(4-(5-(5-(5-(2-(5-(2,6-dioxopiperidin-3-yl)-6-methylpyridin-2-yl)ethyl)-2,5-diazabicyclo[2.2.1]heptan-2-yl)pyridin-2-yl)-1H-pyrazolo[3,4-b]pyridin-3-yl)-2-methylphenyl)ethyl)-1,2,4-oxadiazole-3-carboxamide]
DC50: 4.77 nM

Cc1cc(-c2n[nH]c3ncc(-c4ccc(N5CCN(CCCOc6ccc(C7CCC(=O)NC7=O)c(F)c6)CC5)cc4)cc23)ccc1[C@@H](C)NC(=O)c1noc(C(C)(C)C)n1 (stereo partly drawn) [Example 86, 5-(tert-butyl)-N-((1R)-1-(4-(5-(4-(4-(3-(4-(2,6-dioxopiperidin-3-yl)-3-fluorophenoxy)propyl)piperazin-1-yl)phenyl)-1H-pyrazolo[3,4-b]pyridin-3-yl)-2-methylphenyl)ethyl)-1,2,4-oxadiazole-3-carboxamide]
DC50: 3.95 nM

Cc1cc(-c2n[nH]c3ncc(-c4ccc(N5CCN(CC6CCN(c7ccc(N8CCC(=O)NC8=O)cc7)CC6)CC5)nc4)cc23)ccc1CNC(=O)c1nc(C(C)(C)C)no1 [Example 68, 3-(tert-butyl)-N-(4-(5-(6-(4-((1-(4-(2,4-dioxotetrahydropyrimidin-1(2H)-yl)phenyl)piperidin-4-yl)methyl)piperazin-1-yl)pyridin-3-yl)-1H-pyrazolo[3,4-b]pyridin-3-yl)-2-methylbenzyl)-1,2,4-oxadiazole-5-carboxamide]
DC50: 1.47 nM

Cc1cc(-c2n[nH]c3ncc(-c4ccc(C5(F)CCN(CC6CCN(c7ccc(N8CCC(=O)NC8=O)cc7)CC6)CC5)cn4)cc23)ccc1[C@@H](C)NC(=O)c1nc(C(C)(C)C)no1 [Example 205, (R)-3-(tert-butyl)-N-(1-(4-(5-(5-(1-((1-(4-(2,4-dioxotetrahydropyrimidin-1(2H)-yl)phenyl)piperidin-4-yl)methyl)-4-fluoropiperidin-4-yl)pyridin-2-yl)-1H-pyrazolo[3,4-b]pyridin-3-yl)-2-methylphenyl)ethyl)-1,2,4-oxadiazole-5-carboxamide]
DC50: 0.736 nM

Cc1cc(-c2n[nH]c3ncc(-c4ccc(C5CCN(CCCOc6ccc(NC7CCC(=O)NC7=O)cc6)CC5)cc4)cc23)ccc1CNC(=O)c1noc(C(C)(C)C)n1 (stereo not shown) [Example 2, 5-(tert-butyl)-N-(4-(5-(4-(1-(3-(4-((2,6-dioxopiperidin-3-yl)amino)phenoxy)propyl)piperidin-4-yl)phenyl)-1H-pyrazolo[3,4-b]pyridin-3-yl)-2-methylbenzyl)-1,2,4-oxadiazole-3-carboxamide]
DC50: 0.953 nM | Dmax: 96.2%

Cc1cc(-c2n[nH]c3ncc(-c4ccc(N5CCN(CCc6ccc(C7CCC(=O)NC7=O)cn6)CC5)cc4)cc23)ccc1CNC(=O)c1noc(C(C)(C)C)n1 (stereo not shown) [Example 229, 5-(tert-butyl)-N-(4-(5-(4-(4-(2-(5-(2,6-dioxopiperidin-3-yl)pyridin-2-yl)ethyl)piperazin-1-yl)phenyl)-1H-pyrazolo[3,4-b]pyridin-3-yl)-2-methylbenzyl)-1,2,4-oxadiazole-3-carboxamide]
DC50: 0.427 nM

Cc1cc(-c2n[nH]c3ncc(-c4ccc(N5CCN(CCc6ccc([C@@H]7CCC(=O)NC7=O)cc6)CC5)cn4)cc23)ccc1[C@@H](C)NC(=O)c1noc(C(C)(C)C)n1 [Example 161, 5-(tert-butyl)-N—((R)-1-(4-(5-(5-(4-(4-((S)-2,6-dioxopiperidin-3-yl)phenethyl)piperazin-1-yl)pyridin-2-yl)-1H-pyrazolo[3,4-b]pyridin-3-yl)-2-methylphenyl)ethyl)-1,2,4-oxadiazole-3-carboxamide]
DC50: 5.27 nM

Cc1cc(-c2n[nH]c3ncc(-c4ccc(N5CCC(CN6CCN(c7ccc(N8CCC(=O)NC8=O)cc7)CC6)CC5)cc4)cc23)ccc1[C@@H](C)NC(=O)c1noc(C(C)(C)C)n1 [Example 144, (R)-5-(tert-butyl)-N-(1-(4-(5-(4-(4-((4-(4-(2,4-dioxotetrahydropyrimidin-1(2H)-yl)phenyl)piperazin-1-yl)methyl)piperidin-1-yl)phenyl)-1H-pyrazolo[3,4-b]pyridin-3-yl)-2-methylphenyl)ethyl)-1,2,4-oxadiazole-3-carboxamide]
DC50: 1.93 nM

Cc1cc(-c2n[nH]c3ncc(-c4ccc(N5CCN(CC6CCN(c7ccc(N8CCC(=O)NC8=O)c(C)c7)CC6)CC5)nc4)cc23)ccc1CNC(=O)c1noc(C(C)(C)C)n1 [Example 69, 5-(tert-butyl)-N-(4-(5-(6-(4-((1-(4-(2,4-dioxotetrahydropyrimidin-1(2H)-yl)-3-methylphenyl)piperidin-4-yl)methyl)piperazin-1-yl)pyridin-3-yl)-1H-pyrazolo[3,4-b]pyridin-3-yl)-2-methylbenzyl)-1,2,4-oxadiazole-3-carboxamide]
DC50: 2.5 nM and 2.37 nM

Cc1cc(-c2n[nH]c3ncc(-c4ccc(N5CCN(CC6CCN(c7ccc(N8CCC(=O)NC8=O)cc7C)CC6)CC5)cc4)cc23)ccc1[C@@H](C)NC(=O)c1noc(C(C)(C)C)n1 [Example 135, (R)-5-(tert-butyl)-N-(1-(4-(5-(4-(4-((1-(4-(2,4-dioxotetrahydropyrimidin-1(2H)-yl)-2-methylphenyl)piperidin-4-yl)methyl)piperazin-1-yl)phenyl)-1H-pyrazolo[3,4-b]pyridin-3-yl)-2-methylphenyl)ethyl)-1,2,4-oxadiazole-3-carboxamide]
DC50: 12.7 nM

Cc1cc(-c2n[nH]c3ncc(-c4ccc(N5CCN(CC6CCN(c7ccc(N8CCC(=O)NC8=O)cn7)CC6)CC5)cc4)cc23)ccc1[C@@H](C)NC(=O)c1noc(C(C)(C)C)n1 [Example 124, (R)-5-(tert-butyl)-N-(1-(4-(5-(4-(4-((1-(5-(2,4-dioxotetrahydropyrimidin-1(2H)-yl)pyridin-2-yl)piperidin-4-yl)methyl)piperazin-1-yl)phenyl)-1H-pyrazolo[3,4-b]pyridin-3-yl)-2-methylphenyl)ethyl)-1,2,4-oxadiazole-3-carboxamide]
DC50: 1.42 nM

Cc1cc(-c2n[nH]c3ncc(-c4ccc(N5CCN(CCc6ccc7c(c6)C[C@@]6(CC(=O)NC6=O)C7)CC5)cc4)cc23)ccc1[C@@H](C)NC(=O)c1nc(C(C)(C)C)no1 [Example 207, 3-(tert-butyl)-N—((R)-1-(4-(5-(4-(4-(2-((R)-2′,5′-dioxo-1,3-dihydrospiro[indene-2,3′-pyrrolidin]-5-yl)ethyl)piperazin-1-yl)phenyl)-1H-pyrazolo[3,4-b]pyridin-3-yl)-2-methylphenyl)ethyl)-1,2,4-oxadiazole-5-carboxamide]
DC50: 54 nM

Cc1cc(-c2n[nH]c3ncc(-c4ccc(C5CCN(CCC6CCN(c7ccc(N8CCC(=O)NC8=O)cc7)CC6)CC5)cc4)cc23)ccc1CNC(=O)c1nc(C(C)(C)C)no1 [Example 5, 3-(tert-butyl)-N-(4-(5-(4-(1-(2-(1-(4-(2,4-dioxotetrahydropyrimidin-1(2H)-yl)phenyl)piperidin-4-yl)ethyl)piperidin-4-yl)phenyl)-1H-pyrazolo[3,4-b]pyridin-3-yl)-2-methylbenzyl)-1,2,4-oxadiazole-5-carboxamide]
DC50: 1.55 nM | Dmax: 97%
